Measurements as given in patent US20220056019A1, “FARNESOID X RECEPTOR AGONISTS AND USES THEREOF” (Metacrine, Inc., priority 2018, published 2022).

Target: T1, hFXR (Homo sapiens, UniProt Q96RI1)
T1 construct: expressed in transfected cells; host or cells: CV-1 cells
T1 sequence (Q96RI1 1-486): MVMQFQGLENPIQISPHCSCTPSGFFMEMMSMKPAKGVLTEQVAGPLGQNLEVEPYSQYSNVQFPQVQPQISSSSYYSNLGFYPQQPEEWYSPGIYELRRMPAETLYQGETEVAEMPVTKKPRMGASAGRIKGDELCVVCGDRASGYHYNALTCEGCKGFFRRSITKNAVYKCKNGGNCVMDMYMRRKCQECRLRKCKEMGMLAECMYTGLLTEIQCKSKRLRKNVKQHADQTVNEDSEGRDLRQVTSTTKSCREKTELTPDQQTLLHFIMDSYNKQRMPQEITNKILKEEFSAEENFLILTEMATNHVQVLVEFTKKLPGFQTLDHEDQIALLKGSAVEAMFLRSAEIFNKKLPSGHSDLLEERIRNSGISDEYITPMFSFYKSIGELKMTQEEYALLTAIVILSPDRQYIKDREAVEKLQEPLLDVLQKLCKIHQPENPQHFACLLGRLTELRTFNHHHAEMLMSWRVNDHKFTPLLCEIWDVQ
T1 sequence (P19793 1-462 partner): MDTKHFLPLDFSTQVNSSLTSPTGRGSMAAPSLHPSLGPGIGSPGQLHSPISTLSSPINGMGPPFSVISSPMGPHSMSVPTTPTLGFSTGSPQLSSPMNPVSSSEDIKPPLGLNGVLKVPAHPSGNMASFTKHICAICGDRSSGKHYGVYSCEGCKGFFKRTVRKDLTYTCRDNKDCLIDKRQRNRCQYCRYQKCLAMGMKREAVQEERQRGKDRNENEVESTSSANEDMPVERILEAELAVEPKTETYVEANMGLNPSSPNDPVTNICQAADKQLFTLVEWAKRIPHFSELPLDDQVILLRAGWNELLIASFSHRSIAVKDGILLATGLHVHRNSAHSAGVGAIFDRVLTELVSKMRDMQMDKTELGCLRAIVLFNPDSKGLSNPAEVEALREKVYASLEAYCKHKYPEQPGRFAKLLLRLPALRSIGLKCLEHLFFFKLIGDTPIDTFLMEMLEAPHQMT
Experiment: In Vitro FXR Assay (TK): TK-ECRE-luc reporter in transfected CV-1 cells
Format: cell-based
Conditions: 18 hrs incubation, luminescence
Procedure, shortened: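 Reporter gene assay: CV-1 cells co-expressing hFXR, hRXR, TK-ECRE-luc and pCMX-YFP after overnight transfection in charcoal-stripped serum. Treatment with serially diluted compounds lasted 18 hrs at 37 °C, followed by cell lysis and a luminescence measurement.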

Row | Compound | EC50
1 | COc1ccc([C@H]2CC[C@H](CN(c3cc(-c4coc(C(C)C)n4)ccn3)C(=O)[C@H]3CC[C@H](OC(=O)N4CCN(C)CC4)CC3)CC2)cc1C [Compound 2.25, trans-4-((4-(2-Isopropyloxazol-4-yl)pyridin-2-yl)(((trans)-4-(4-methoxy-3-methylphenyl)cyclohexyl)methyl)carbamoyl)cyclohexyl 4-methylpiperazine-1-carboxylate] | ≤ 50 nM
2 | CCOC(=O)N[C@H]1CC[C@H](C(=O)N(C[C@H]2CC[C@H](c3ccc(OC)c(C)c3)CC2)c2cccc(-c3cnn(C(C)C)c3)c2)CC1 [Compound 6.01, Ethyl (trans-4-((3-(1-isopropyl-1H-pyrazol-4-yl)phenyl)((trans-4-(4-methoxy-3-methylphenyl)cyclohexyl)meth-yl)carbamoyl)cyclohexyl)carbamate] | ≤ 50 nM
3 | COc1ccc(C23CCC(CN(c4cc(-c5cnn(C(C)C)c5)ncn4)C(=O)[C@H]4CC[C@H](OC(=O)N5CC(C#N)C5)CC4)(CC2)CC3)cc1C [Compound 23.22, 4-((6-(1-Isopropyl-1H-pyrazol-4-yl)pyrimidin-4-yl)((4-(4-methoxy-3-methylphenyl)bi-cyclo[2.2.2]octan-1-yl)methyl)carbamoyl(trans-cyclohexyl) 3-cyanoazetidine-1-carboxylate] | 50 to 1000 nM
4 | COc1ccc([C@H]2CC[C@H](CN(c3cccc(-c4cnn(C(C)C)c4)c3)C(=O)[C@H]3CC[C@H](OC(=O)NCC(C)F)CC3)CC2)cc1C (stereo partly drawn) [Compound 5.05, trans-4-((3-(1-Isopropyl-1H-pyrazol-4-yl)phenyl)(((trans)-4-(4-methoxy-3-methylphenyl)cyclohexyl)methyl)carbamoyl)cyclohexyl (2-fluoropropyl)carbamate] | ≤ 50 nM
5 | CC(C)c1ccc(C23CCC(CN(c4cc(-c5cnn(C(C)C)c5)ccn4)C(=O)[C@H]4CC[C@H](OC(=O)N5CC(O)C5)CC4)(CC2)CC3)cc1 [Compound 26.10, 4-((4-(1-Isopropyl-1H-pyrazol-4-yl)pyridin-2-yl)((4-(4-isopropylphenyl)bicyclo[2.2.2]octan-1-yl)methyl)carbamoyl)cyclohexyl trans-3-hydroxyazetidine-1-carboxylate] | ≤ 50 nM
6 | COc1ccc([C@H]2CC[C@H](CN(c3cc(-c4coc(C(C)C)n4)ccn3)C(=O)[C@H]3CC[C@H](OC(=O)NCC(C)(C)CO)CC3)CC2)nc1C [Compound 1.01, trans-4-((4-(2-Isopropyloxazol-4-yl)pyridin-2-yl)((trans-4-(5-methoxy-6-methylpyridin-2-yl)cyclohexyl)methyl)carbamoyl) cyclohexyl (3-hydroxy-2,2-dimethylpropyl)carbamate] | 50 to 1000 nM
7 | COc1ccc([C@H]2CC[C@H](CN(c3cccc(-c4cnn(C(C)C)c4)c3)C(=O)[C@H]3CC[C@H](CNC(=O)C(C)C)CC3)CC2)cc1C [Compound 12.02, (trans)-4-(Isobutyramidomethyl)-i-(3-(1-isopropyl-1H-pyrazol-4-yl)phenyl)-N-(((trans)-4-(4-methoxy-3-methylphenyl)cyclohexyl)methyl) cyclohexanecarboxamide] | 50 to 1000 nM
8 | COc1ccc([C@H]2CC[C@H](CN(c3cc(-c4cnn(C(C)C)c4)ccn3)C(=O)[C@H]3CC[C@H](OC(=O)N4CCN(C)CC4)CC3)CC2)cc1C [Compound 2.14, trans-4-((4-(1-Isopropyl-1H-pyrazol-4-yl)pyridin-2-yl)(((trans)-4-(4-methoxy-3-methylphenyl)cyclohexyl)methyl)carbamoyl) cyclohexyl4-methylpiperazine-1-carboxylate] | ≤ 50 nM
9 | COc1ccc(C23CCC(CN(c4cc(-c5cnn(C(C)C(F)(F)F)c5)ccn4)C(=O)[C@H]4CC[C@H](OC(=O)N5CC(O)C5)CC4)(CC2)CC3)cc1C (stereo partly drawn) [Compound 26.11, 4-(((4-(4-Methoxy-3-methylphenyl)bicyclo[2.2.2]octan-1-yl)methyl)(4-(1-(1,1,1-trifluoropropan-2-yl)-1H-pyrazol-4-yl)pyridin-2-yl)carbamoyl)cyclohexyl trans-3-hydroxyazetidine-1-carboxylate] | ≤ 50 nM
